Measurements: patent publication US20120283096A1, “AGENT FOR IMPROVING PLANT GROWTH, SEEDS, AND METHOD FOR IMPROVING PLANT GROWTH” (Incorporated Administrative Agency National Agricu lture …, priority 2010, published 2012)
Read-outs that look alike come from different tables or passages of the source.

How the values were obtained:
decay of paddy seeds = assay: Decay-inhibiting effect in tank farming without soil (Example 3); conditions: for Inhibition of decay, Amount of molybdenum or tungsten added to seed: seeds covered with substance, soaked two weeks in water at 30° C.; for Soaking: Inhibition of decay, Concentration of Molybdenum in Solution: paddy seeds left soaked two weeks in the solution at 30° C., no soil, water did not rot, no rotten smell; for Ten-minute soaking: Inhibition of decay, Concentration of Molybdenum in Solution: seeds soaked ten minutes in the solution, then two weeks in water at 30° C.
Method: (§1) The decay-inhibiting effect of molybdenum-containing substances in tank farming without soil was examined.
(§2) The possibility of growth and the inhibition of decay were determined in the same manner as above.

paddy seeds = assay: Possibility of growth of paddy seeds in tank farming without soil (Example 3)
Method: as §1, §2

soybean = assay: Seedling establishment of soybean seeds submerged for two days (Example 6a-1, FIG. 20e); type: in vivo; conditions: 0.01 mmol to 0.5 mmol molybdenum per gram of dry seed, 25° C., versus untreated seeds
Method: Soil was prepared in the same manner as in Example 6-1. Next, soybean seeds (branded as Fukuyutaka) not subjected to treatment such as soaking in advance were soaked for one minute in a tenfold diluted solution of a commercially available laundry starch (manufactured by Rocket Soap Co., Ltd.; My Laundry Starch) containing approximately a little less than 10% by weight of polyvinyl alcohol. Then, the seeds were spin-dried for thirty seconds in a commercially available washing machine for removal of the extra water. […] These seeds were buried so that the upper edge of each seed was at the same height as the soil surface. In an artificially-lit (amount of light 0.4 mmol/m^2/s, lit for twelve hours per day) room at 25° C., water was added immediately after seeding so that the surface water was 15 mm high. After two days, the surface water was sucked up with a pipette for removal. Six containers were allotted for each condition, and the proportion of seedling establishment (proportion of individual plants that survived) was measured two weeks after seeding. It should be noted that in FIG. 20e, the horizontal axis represents the number of moles (mmol) of molybdenum that adhered per gram of dry seed. In FIG. 20e, the dots correspond to the numbers of moles of 0 (UNTREATED), 0.01, 0.02, 0.05, 0.1, 0.2, and 0.5 mmol, starting from the left. […]

paddy rice [1] = assay: Seedling establishment of coated paddy seeds planted in a paddy field (Example 4-5, FIG. 22); type: in vivo; conditions: dry seeds coated with clay plus 0.1 mmol/g molybdenum; kept submerged, about one month after seeding; versus WITHOUT MATERIAL and oxygen generating agent (Cal)
Method: Dry paddy seeds (branded as Hinohikari) were prepared.
Separately, dry seeds (WITHOUT MATERIAL) coated solely with clay containing no molybdenum were also prepared. Furthermore, dry seeds (Cal) coated with an oxygen generating agent (Calper Powder 16, Hodogaya UPL Co., Ltd.) the same weight per dry seeds were also prepared. Calper Powder 16 is an oxygen generating agent composed mainly of calcium peroxide.
These dry seeds were planted in puddled soil in a paddy field in Chikugo City, Fukuoka Prefecture, by using a simultaneous puddling and planting point sowing machine. By preparing the seeds as described above and planting them by using a point sowing machine, the amount of seeding per unit area of the paddy field can be substantially uniformed. It should be noted that prior to soil puddling, 4 g/m^2 of ammonium sulfate as nitrogen and potassium sulfate containing potassium equivalent to 8 g/m^2 as potassium oxide had been applied to the paddy field. After seeding, the seeds were kept submerged without draining the water.

barley = assay: Seedling establishment of barley seeds in humid soil (Example 6-1, FIG. 20a); type: in vivo; conditions: 0.01 mmol to 0.5 mmol molybdenum per gram of dry seed, 20° C., after two weeks
Method: (§3) As in Example 4-1, ammonium sulfate in an equivalent amount of 10 g/m^2 in terms of nitrogen and potassium chloride equivalent to 5 g/m^2 of potassium as potassium oxide were added as a solution to paddy humid soil in terms of 100 kg/m^2 of dry soil with a soil-to-liquid ratio of 0.7. The soil was placed into each container (in the shape of a cylinder approximately 7 cm in diameter) in an amount equivalent to 100 g of dry soil. The soil surface was flattened by giving it a slight press with a flat plate. Then, the soil was left at rest for one day at 4° C. […] The seeds were then half-buried in the soil. After that, at a constant temperature of 20° C., the water level was kept by adding water to such an extent that the seeds were slightly covered with water. Six containers were allotted for each condition, and the proportion of seedling establishment (proportion of individual plants that survived) was measured after two weeks. It should be noted that in each of FIGS. 20a and 20b, the horizontal axis represents the number of moles (mmol) of molybdenum that adhered per gram of dry seed. In each of FIGS. 20a and 20b, the dots correspond to the numbers of moles of 0, 0.01, 0.02, 0.05, 0.1, 0.2, and 0.5 mmol, starting from the left. […]

paddy rice [2] = assay: Seedling establishment of coated paddy seeds in submerged soil containers (Examples 4-1 to 4-4b, FIGS. 11, 14-19c); type: in vivo
Method: The germinated paddy seeds were soaked for one minute in a tenfold diluted solution of a commercially available laundry starch (manufactured by Rocket Soap Co., Ltd.; My Laundry Starch) containing approximately a little less than 10% by weight of polyvinyl alcohol, centrifuged at 1000 rpm for removal of the extra solution, and, immediately after that, lightly covered with different amounts of ammonium molybdophosphate, whereby seeds with different amounts of ammonium molybdophosphate were prepared.
(§4) It should also be noted that in each of FIGS. 14 through 15b, the horizontal axis represents the number of moles (mmol) of molybdenum or tungsten that adhered per gram of dry seed. In each of FIGS. 14 through 15b, the dots correspond to the numbers of moles of 0, 0.02, 0.05, 0.1, 0.2, 0.5, 1, and 2 mmol, starting from the left.
as §4, with “should” for “should also”, “16” for “14”, “18,” for “15b,”, “molybdenum” for “molybdenum or tungsten”
It should be noted that in FIG. 19a, the horizontal axis represents the number of moles (mmol) of molybdenum that adhered per gram of dry seed. In FIG. 19a, the dots correspond to the numbers of moles of 0, 0.02, 0.05, 0.1, 0.2, 0.5, 1, and 2 mmol, starting from the left.
The resulting seeds were allowed to spend time in a sufficiently wet condition so that the iron rusted, and then allowed to further spend overnight. […] Six containers were allotted for each condition, and the proportion of seedling establishment and the standard error were examined. It should be noted that in FIG. 19b, the horizontal axis represents the number of moles (mmol) of molybdenum that adhered per gram of dry seed. In FIG. 19b, the dots correspond to the numbers of moles of 0, 0.02, 0.05, 0.1, 0.2, 0.5, 1, and 2 mmol, starting from the left.
Six containers were allotted for each condition, and the proportion of seedling establishment and the standard error were examined. It should be noted that in FIG. 19c, the horizontal axis represents the actual weight ratios of 25 wt % calcium peroxide that adhered with respect to the weight of dry seed. In FIG. 19c, the dots correspond to the actual weight ratios of 25 wt % calcium peroxide of 0, 0.01, 0.02, 0.05, 0.1, 0.2, 0.5, and 1 time, starting from the left.

wheat = assay: Seedling establishment of wheat seeds in humid soil (Example 6-1, FIG. 20b); type: in vivo; conditions: 0.01 mmol to 0.5 mmol molybdenum per gram of dry seed, 20° C., after two weeks
Method: as §3

sulfide ions = assay: Inhibiting effect of molybdenum added to soil on sulfide ions (Example 1-3, FIG. 4); conditions: supernatant after shaking soil, 30° C., two weeks after seeding
Method: An inhibiting effect of a molybdenum-containing substance on sulfide ions was examined in relation to the degrees of generation of ferric sulfide in soil and the concentrations of molybdenum in soil solutions, and the results are shown in FIG. 4. The results shown in FIG. 4 were obtained from samples obtained in the same manner as in Example 1-2. Since methylene blue decolorizes in a reduced state, methylene blue weighing 0.1% of dry soil was added to each sample of soil so that a reduced state of the soil could be detected. The supernatant liquids obtained after shaking the samples of soil thus adjusted had molybdenum concentrations shown in FIG. 4.

[3] = in water, powder, cited from earlier work
sulfide ion generation = assay: Inhibition of sulfide ion generation, paddy seeds covered with slightly-soluble substances (Example 2-3, FIG. 9); conditions: approximately 0.1 mmol/g (per dry seeds) in terms of molybdenum or tungsten
Excerpt: The water on slightly germinated seeds was lightly wiped off, and immediately after that, the seeds were put with (lightly covered with) various amounts of the slightly-soluble substances shown in Table 1. […] The number of days for which sulfide ion generation was inhibited and the proportion of seedling establishment were examined.

paddy rice [4] = assay: Seedling establishment of paddy seeds soaked in solutions of readily-soluble molybdenum substances (Example 2-2, FIGS. 8 and 13); type: in vivo
Method: The examination of the proportion of seedling establishment was carried out under the same conditions as the examination whose results are shown in FIG. 8, except for the molybdenum concentration and the duration of soaking.

[5] = 3 M molybdenum solution, one-minute soaking, FIG. 13

Question: Which results are given for `[O]=[Mo](=[O])=[O]` [Molybdenum oxide, Molybdenum oxide (VI)]?
Answer: Inhibition of decay, Amount of molybdenum or tungsten added to seed (decay of paddy seeds): <0.01 mmol/g; Possibility of growth, Amount of molybdenum or tungsten added to seed (paddy seeds; in vivo): 0.07 mmol/g; proportion of seedling establishment (soybean): improvements in proportion of seedling establishment; seedling establishment (paddy rice [1]): obvious improvements in seedling establishment; proportion of seedling establishment (barley): improvements in proportion of seedling establishment; molybdenum amount leading to improvements in seedling establishment (paddy rice [2]; dry seeds coated with mixture with reduced iron (half the weight of dry seeds), 30° C., FIG. 19b): ≥ 0.5 mmol/g; proportion of seedling establishment (paddy rice [2]; dry seeds, mixture of 0.1 mmol/g molybdenum oxide and 25 wt % calcium peroxide at 0.1 or less time the weight of dry seed, 30° C.): ≥ 40%; proportion of seedling establishment (paddy rice [2]; mixture of 0.1 mmol/g molybdenum oxide and 25 wt % calcium peroxide at 0.2 to 0.5 time the weight of dry seed, versus absence of molybdenum oxide): higher proportion of seedling establishment; proportion of seedling establishment (wheat): improvements in proportion of seedling establishment

Question: With `[K+].[K+].[O]=[Mo](=[O])([O-])[O-]` [Potassium molybdate] as the compound, how does the “molybdenum concentration at which sulfide ions were effectively inhibited” value (sulfide ions) read?
Answer: Its value is ≥ 0.2 mM.

Question: And the “molybdenum concentration up to which black circles were observed in the soil” value (sulfide ions)?
Answer: The value was ≤ 0.06 mM.

Question: And the “Soaking: Inhibition of decay, Concentration of Molybdenum in Solution” value (decay of paddy seeds)?
Answer: The value was 0.3 M.

Question: What about the “Ten-minute soaking: Inhibition of decay, Concentration of Molybdenum in Solution” value (decay of paddy seeds) of the same compound?
Answer: The value was 0.5 M.

Question: And the “Soaking: Possibility of growth, Concentration of Molybdenum in Solution” value (paddy seeds; paddy seeds left soaked two weeks in the solution at 30° C., no soil, concentration at which sheath leaf elongation was observed)?
Answer: Its value is 0.02 M.

Question: And the “Ten-minute soaking: Possibility of growth, Concentration of Molybdenum in Solution” value (paddy seeds; seeds soaked ten minutes in the solution, then two weeks in water at 30° C.)?
Answer: Its value is 1< M.

Question: And the Water solubility [3]?
Answer: Its Water solubility is “Readily soluble”.

Question: What about the Water solubility ([3]; listed as potassium molybdate) of the same compound?
Answer: Its Water solubility is “readily soluble”.

Question: Which results are given for `[O]=[Mo](=[O])([OH])[OH]` [Molybdic acid]?
Answer: Inhibition of decay, Amount of molybdenum or tungsten added to seed (decay of paddy seeds): <0.02 mmol/g; Possibility of growth, Amount of molybdenum or tungsten added to seed (paddy seeds; in vivo): > 2 mmol/g; number of days for which sulfide ion generation was inhibited (sulfide ion generation): fourteen; Water solubility [3]: Slightly soluble (has a percentage of solubility of 10% by weight or lower with respect to water); Water solubility ([3]; listed as molybdic acid): slightly soluble

Question: For `[O]=[W](=[O])=[O]` [Tungsten oxide, Tungsten oxide (VI)], which “Inhibition of decay, Amount of molybdenum or tungsten added to seed” value (decay of paddy seeds) is on record?
Answer: The value was 1< mmol g^−1.

Question: And the Possibility of growth, Amount of molybdenum or tungsten added to seed (paddy seeds; in vivo)?
Answer: The Possibility of growth, Amount of molybdenum or tungsten added to seed was > 1 mmol/g.

Question: What about the “number of days for which sulfide ion generation was inhibited” value (sulfide ion generation) of the same compound?
Answer: Its value is “fourteen”.

Question: And the Water solubility [3]?
Answer: Its Water solubility is “Slightly soluble (has a percentage of solubility of 10% by weight or lower with respect to water)”.

Question: Which results are given for “Sodium phosphomolybdate n-hydrate [Sodium molybdophosphate]”?
Answer: Soaking: Inhibition of decay, Concentration of Molybdenum in Solution (decay of paddy seeds): <0.02 M; Ten-minute soaking: Inhibition of decay, Concentration of Molybdenum in Solution (decay of paddy seeds): 0.1 M; Soaking: Possibility of growth, Concentration of Molybdenum in Solution (paddy seeds; in vivo): <0.02 M; Ten-minute soaking: Possibility of growth, Concentration of Molybdenum in Solution (paddy seeds; in vivo): > 1 M; Water solubility [3]: Readily soluble; Water solubility ([3]; listed as sodium molybdophosphate): readily soluble; molybdenum concentration of the soaking solution at which proportion of seedling establishment improved (paddy rice [4]; ten-minute soaking, FIG. 8): approximately 1 M; proportion of seedling establishment (paddy rice [4]; ten-minute soaking, soaking solution 2 M molybdenum): decrease in proportion of seedling establishment

Question: With `[Ca+2].[O-][O-]` [calcium peroxide, reference compound] as the compound, how does the “proportion of seedling establishment” value (paddy rice [2]; dry seeds, 25 wt % calcium peroxide alone at 0.1 or less time the weight of dry seed, 30° C., FIG. 19c) read?
Answer: The value was ≤ 20%.

Question: What does the source list for “12-moblybdo(VI)phosphoric acid n-hydrate [Molybdophosphoric acid]”?
Answer: Soaking: Inhibition of decay, Concentration of Molybdenum in Solution (decay of paddy seeds): <0.02 M; Ten-minute soaking: Inhibition of decay, Concentration of Molybdenum in Solution (decay of paddy seeds): 0.1 M; proportion of seedling establishment (paddy rice [4]; [5]): improvement in proportion of seedling establishment

Question: With “Silicomolybdic acid n-hydrate [Molybdosilicic acid]” as the compound, how does the Water solubility [3] read?
Answer: The Water solubility was “Readily soluble”.

Question: What about the Water solubility ([3]; listed as molybdosilicic acid) of the same compound?
Answer: The Water solubility was “readily soluble”.

Question: And the “proportion of seedling establishment” value (paddy rice [4]; [5])?
Answer: The value was “improvement in proportion of seedling establishment”.
